Source: PubChem BioAssay AID2060340 (Molecular Pharmacology Branch, DTP, NCI, 2025)

Test system: 349418-098-R-PDC spheroids, viability, % test/control
Assay: Anticancer human tumor 349418-098-R-PDC patient-derived lung adenocarcinoma cell line growth inhibition [IpAb]
Details: spheroids with HUVEC and MSC; for IC50: curve of first compound; for viability, T/C: stronger effect = lower value
Summary of the method: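 Spheroids of 60% malignant cells, 25% HUVEC and 15% MSC were exposed to targeted agents combined with ipatasertib or abemaciclib. Doses started at or near clinical Cmax (10 microM when unknown) and fell in half-log steps.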

[1] = second compound 0.01 µM, first compound 0.0316 µM
[2] = second compound 0.01 µM, first compound 0.1 µM
[3] = second compound 0.01 µM, first compound 0.316 µM
[4] = second compound 0.01 µM, first compound 1 µM
[5] = second compound 0.0316 µM, first compound 0.0316 µM
[6] = second compound 0.0316 µM, first compound 0.1 µM
[7] = second compound 0.0316 µM, first compound 0.316 µM
[8] = second compound 0.0316 µM, first compound 1 µM
[9] = second compound 0.1 µM, first compound 0.0316 µM
[10] = second compound 0.1 µM, first compound 0.1 µM
[11] = second compound 0.1 µM, first compound 0.316 µM
[12] = second compound 0.1 µM, first compound 1 µM
[13] = second compound 0.316 µM, first compound 0.0316 µM
[14] = second compound 0.316 µM, first compound 0.1 µM
[15] = second compound 0.316 µM, first compound 0.316 µM
[16] = second compound 0.316 µM, first compound 1 µM
[17] = second compound 1 µM, first compound 0.0316 µM
[18] = second compound 1 µM, first compound 0.1 µM
[19] = second compound 1 µM, first compound 0.316 µM
[20] = second compound 1 µM, first compound 1 µM

Row | SMILES | IC50 (second compound 0.01 µM) [nM] | IC50 (second compound 0.0316 µM) [nM] | IC50 (second compound 0.1 µM) [nM] | IC50 (second compound 0.316 µM) [nM] | IC50 (second compound 1 µM) [nM] | viability, T/C [1] [%] | viability, T/C [2] [%] | viability, T/C [3] [%] | viability, T/C [4] [%] | viability, T/C [5] [%] | viability, T/C [6] [%] | viability, T/C [7] [%] | viability, T/C [8] [%] | viability, T/C [9] [%] | viability, T/C [10] [%] | viability, T/C [11] [%] | viability, T/C [12] [%] | viability, T/C [13] [%] | viability, T/C [14] [%] | viability, T/C [15] [%] | further results
1 | COc1c(OCCCN2CCOCC2)ccc2c3n(c(=NC(=O)c4cnc(N)nc4)nc12)CCN3 + CCN1CCN(Cc2ccc(Nc3ncc(F)c(-c4cc(F)c5nc(C)n(C(C)C)c5c4)n3)nc2)CC1 | 5.6 | < 3.16 | < 3.16 | < 3.16 | < 3.16 | 9.39 | 6.45 | 6.48 | 6.24 | 8.91 | 6.1 | 5.57 | 5.71 | 8.06 | 6.16 | 6.04 | 5.83 | 7.73 | 6.28 | 6.11 | viability, T/C (second compound 0.01 µM, first compound 0.00316 µM): 66.8%; viability, T/C (second compound 0.01 µM, first compound 0.01 µM): 32.9%; viability, T/C (second compound 0.0316 µM, first compound 0.00316 µM): 48.8%; viability, T/C (second compound 0.0316 µM, first compound 0.01 µM): 13.5%; viability, T/C (second compound 0.1 µM, first compound 0.00316 µM): 23.6%; viability, T/C (second compound 0.1 µM, first compound 0.01 µM): 14%; viability, T/C (second compound 0.316 µM, first compound 0.00316 µM): 15.9%; viability, T/C (second compound 0.316 µM, first compound 0.01 µM): 10.6%; viability, T/C [16]: 6.92%; viability, T/C (second compound 1 µM, first compound 0.00316 µM): 14%; viability, T/C (second compound 1 µM, first compound 0.01 µM): 12.3%; viability, T/C [17]: 8.15%; viability, T/C [18]: 6.25%; viability, T/C [19]: 7.04%; viability, T/C [20]: 7.33%
2 | Cc1nc(NC(=O)N2CCCC2C(N)=O)sc1-c1ccnc(C(C)(C)C(F)(F)F)c1 (stereo not given) + CCN1CCN(Cc2ccc(Nc3ncc(F)c(-c4cc(F)c5nc(C)n(C(C)C)c5c4)n3)nc2)CC1 | 47.5 | < 31.6 | < 31.6 | < 31.6 | < 31.6 | 59.8 | 32.7 | 17.9 | 14.1 | 40.5 | 27.1 | 12.1 | 7.43 | 20.3 | 13.9 | 9.49 | 7.63 | 15.9 | 12.6 | 9.79 | viability, T/C (second compound 0.01 µM, first compound 3.16 µM): 10.2%; viability, T/C (second compound 0.01 µM, first compound 10 µM): 8.7%; viability, T/C (second compound 0.0316 µM, first compound 3.16 µM): 7.43%; viability, T/C (second compound 0.0316 µM, first compound 10 µM): 8.13%; viability, T/C (second compound 0.1 µM, first compound 3.16 µM): 7.46%; viability, T/C (second compound 0.1 µM, first compound 10 µM): 7.65%; viability, T/C [16]: 8.43%; viability, T/C (second compound 0.316 µM, first compound 3.16 µM): 9%; viability, T/C (second compound 0.316 µM, first compound 10 µM): 7.65%; viability, T/C [17]: 12.8%; viability, T/C [18]: 11.4%; viability, T/C [19]: 9.14%; viability, T/C [20]: 7.42%; viability, T/C (second compound 1 µM, first compound 3.16 µM): 7.89%; viability, T/C (second compound 1 µM, first compound 10 µM): 6.94%
